Experimental data reported in ChEMBL document CHEMBL1201862, “PubChem BioAssay data set” (2004).
The source made the active and inactive calls. Rule as the data show it, for most assays here: actives have a measured IC50 and inactives only a lower limit.

Columns and labels:
Prothrombin = Prothrombin (Bos taurus, UniProt P00735); experiment: thrombin inhibition, dose response, biochemical, fluorescence polarization, uHTS hits (AID 602369); format: functional
[1] = target: 72 kDa type IV collagenase (Homo sapiens, UniProt P08253); experiment: Dose Response validation of uHTS RPN11 inhibitor hits using a MMP-2 Fluorescence assay.; format: functional
[2] = Artemis endonuclease inhibitor potency, dose response, biochemical, fluorescence intensity (AID 720701); format: functional;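 also: Artemis endonuclease enzyme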
[3] = target: T1, Apoptotic protease-activating factor 1 (Homo sapiens, UniProt O14727); format: functional
T1 sequence (O14727 whole entry): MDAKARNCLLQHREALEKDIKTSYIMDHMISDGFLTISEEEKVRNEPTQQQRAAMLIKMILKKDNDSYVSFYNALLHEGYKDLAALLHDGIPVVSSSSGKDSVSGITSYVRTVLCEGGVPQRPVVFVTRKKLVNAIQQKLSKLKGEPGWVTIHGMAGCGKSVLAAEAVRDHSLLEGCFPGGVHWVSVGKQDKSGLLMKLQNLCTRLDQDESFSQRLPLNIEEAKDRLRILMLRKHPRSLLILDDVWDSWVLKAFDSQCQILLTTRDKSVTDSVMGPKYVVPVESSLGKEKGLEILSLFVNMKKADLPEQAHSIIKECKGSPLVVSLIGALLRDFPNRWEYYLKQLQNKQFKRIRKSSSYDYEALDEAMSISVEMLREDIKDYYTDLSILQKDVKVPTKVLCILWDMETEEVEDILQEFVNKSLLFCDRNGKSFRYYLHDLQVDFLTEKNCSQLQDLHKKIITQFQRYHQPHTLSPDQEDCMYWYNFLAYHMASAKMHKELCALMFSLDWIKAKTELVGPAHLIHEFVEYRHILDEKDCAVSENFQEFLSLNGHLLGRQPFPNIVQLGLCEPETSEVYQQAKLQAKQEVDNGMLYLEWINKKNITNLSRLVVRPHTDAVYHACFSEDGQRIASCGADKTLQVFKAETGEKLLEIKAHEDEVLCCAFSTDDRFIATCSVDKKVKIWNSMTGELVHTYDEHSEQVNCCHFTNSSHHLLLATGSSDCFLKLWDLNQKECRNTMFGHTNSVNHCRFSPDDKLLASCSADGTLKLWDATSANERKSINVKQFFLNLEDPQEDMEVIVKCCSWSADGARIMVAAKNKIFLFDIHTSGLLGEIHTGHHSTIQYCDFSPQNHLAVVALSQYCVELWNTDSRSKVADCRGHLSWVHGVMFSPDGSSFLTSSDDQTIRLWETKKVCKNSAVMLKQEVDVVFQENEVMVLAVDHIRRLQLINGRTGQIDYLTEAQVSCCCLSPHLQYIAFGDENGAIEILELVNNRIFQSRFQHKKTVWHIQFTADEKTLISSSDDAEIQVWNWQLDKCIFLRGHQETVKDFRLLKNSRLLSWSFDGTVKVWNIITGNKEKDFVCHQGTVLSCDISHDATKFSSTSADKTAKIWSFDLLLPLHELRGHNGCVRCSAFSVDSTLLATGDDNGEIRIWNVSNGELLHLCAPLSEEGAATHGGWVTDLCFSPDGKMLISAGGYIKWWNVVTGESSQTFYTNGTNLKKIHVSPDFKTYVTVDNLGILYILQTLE

[4] = target: T2, Tyrosyl-DNA phosphodiesterase 2 (Homo sapiens, UniProt O95551); experiment: human TDP2 enzyme inhibitors, dose response, biochemical, epi absorbance, IC50 (AID 743297)
T2 sequence (O95551 whole entry): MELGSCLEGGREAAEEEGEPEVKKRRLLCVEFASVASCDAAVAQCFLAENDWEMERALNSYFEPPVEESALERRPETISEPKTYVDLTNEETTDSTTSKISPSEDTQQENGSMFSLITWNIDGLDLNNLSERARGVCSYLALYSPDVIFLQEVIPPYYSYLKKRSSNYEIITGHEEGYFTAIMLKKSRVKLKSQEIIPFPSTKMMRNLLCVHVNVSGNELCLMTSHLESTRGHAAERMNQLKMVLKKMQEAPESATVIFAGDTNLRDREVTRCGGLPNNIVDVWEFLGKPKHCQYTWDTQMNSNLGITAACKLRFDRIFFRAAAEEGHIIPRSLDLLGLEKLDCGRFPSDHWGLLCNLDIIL

Sequence of 72 kDa type IV collagenase (P08253 whole entry): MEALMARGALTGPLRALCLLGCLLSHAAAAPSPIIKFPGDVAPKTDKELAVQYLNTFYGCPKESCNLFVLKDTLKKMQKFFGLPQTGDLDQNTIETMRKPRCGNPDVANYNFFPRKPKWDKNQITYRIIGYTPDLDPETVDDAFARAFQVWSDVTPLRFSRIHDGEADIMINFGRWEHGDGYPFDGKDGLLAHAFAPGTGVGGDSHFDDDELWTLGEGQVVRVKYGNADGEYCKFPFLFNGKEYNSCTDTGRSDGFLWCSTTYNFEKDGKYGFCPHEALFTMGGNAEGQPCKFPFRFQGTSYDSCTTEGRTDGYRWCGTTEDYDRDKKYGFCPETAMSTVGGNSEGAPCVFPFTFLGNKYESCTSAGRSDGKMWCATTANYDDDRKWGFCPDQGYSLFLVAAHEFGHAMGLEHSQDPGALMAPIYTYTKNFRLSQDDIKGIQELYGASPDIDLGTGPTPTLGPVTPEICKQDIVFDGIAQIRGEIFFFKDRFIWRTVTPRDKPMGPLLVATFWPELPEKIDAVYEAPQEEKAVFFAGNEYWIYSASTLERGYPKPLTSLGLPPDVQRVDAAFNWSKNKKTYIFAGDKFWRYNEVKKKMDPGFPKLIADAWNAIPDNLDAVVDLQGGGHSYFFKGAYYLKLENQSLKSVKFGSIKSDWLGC

| IC50 [2] | IC50 [3] | IC50 [4] | Compound | IC50 (Prothrombin) | IC50 [1] |
| --- | --- | --- | --- | --- | --- |
|  |  |  | O=[N+]([O-])c1ccc(N/N=C/c2ccc[nH]2)cc1 | 9.84 µM (active) | 70.3 µM (active) |
| 18.3 µM (active) | 4.46 µM (active) | 6.48 µM (active) | CC(=O)N(/N=C1\Sc2ccccc2C1=O)c1cccc(C)c1 |  |  |
